Source: patent US12180193B2, “Accelerating fibrosarcoma protein degrading compounds and associated methods of use” (Arvinas Operations, Inc., priority 2020, dated 2024)

Experiments:
BRAF V600E = molecular target: T1, BRAF V600E (Homo sapiens, UniProt P15056, V600E); experiment: Cellular assay of target protein degradation, T-Rex 293 cells stably transfected with HA-BRAF_V600E (HA immunofluorescence, high content imaging); type: cell-based; settings: T-Rex 293 HA-BRAF V600E; for DC50: half maximal degradation, read-out: BRaf V600E DC50; for Dmax: maximum degradation observed
T1 construct: expressed in transfected cells
Procedure, shortened: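 24 h compound exposure, 1 μM–0.1 nM final, 0.1% DMSO, 37 °C; cells induced with 1 ng/mL doxycycline. PFA fix, Triton permeabilize, anti-HA overnight 4 °C, Hoechst/phalloidin counterstain. Output: DC50, Dmax as % control.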

BRAF G466V = molecular target: T2, BRAF G466V (Homo sapiens, UniProt P15056, G466V); experiment: Cellular assay of target protein degradation, T-Rex 293 cells stably transfected with HA-BRAF G466V (HA immunofluorescence, high content imaging); type: cell-based; settings: T-Rex 293 HA-BRAF G466V; for DC50: half maximal degradation, read-out: BRaf G466V DC50; for Dmax: maximum degradation observed
T2 construct: expressed in transfected cells
Procedure, shortened: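 24 h compound, 30 nM–3 pM final, 0.1% DMSO, 37° C; HA-BRAF G466V induced with 0.75 ng/mL doxycycline. PFA fix, Triton perm, anti-HA + Alexa fluor secondary, Hoechst/phalloidin counterstain; imaging. DC50, Dmax (% of control).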

T2 sequence (P15056 whole entry G466V): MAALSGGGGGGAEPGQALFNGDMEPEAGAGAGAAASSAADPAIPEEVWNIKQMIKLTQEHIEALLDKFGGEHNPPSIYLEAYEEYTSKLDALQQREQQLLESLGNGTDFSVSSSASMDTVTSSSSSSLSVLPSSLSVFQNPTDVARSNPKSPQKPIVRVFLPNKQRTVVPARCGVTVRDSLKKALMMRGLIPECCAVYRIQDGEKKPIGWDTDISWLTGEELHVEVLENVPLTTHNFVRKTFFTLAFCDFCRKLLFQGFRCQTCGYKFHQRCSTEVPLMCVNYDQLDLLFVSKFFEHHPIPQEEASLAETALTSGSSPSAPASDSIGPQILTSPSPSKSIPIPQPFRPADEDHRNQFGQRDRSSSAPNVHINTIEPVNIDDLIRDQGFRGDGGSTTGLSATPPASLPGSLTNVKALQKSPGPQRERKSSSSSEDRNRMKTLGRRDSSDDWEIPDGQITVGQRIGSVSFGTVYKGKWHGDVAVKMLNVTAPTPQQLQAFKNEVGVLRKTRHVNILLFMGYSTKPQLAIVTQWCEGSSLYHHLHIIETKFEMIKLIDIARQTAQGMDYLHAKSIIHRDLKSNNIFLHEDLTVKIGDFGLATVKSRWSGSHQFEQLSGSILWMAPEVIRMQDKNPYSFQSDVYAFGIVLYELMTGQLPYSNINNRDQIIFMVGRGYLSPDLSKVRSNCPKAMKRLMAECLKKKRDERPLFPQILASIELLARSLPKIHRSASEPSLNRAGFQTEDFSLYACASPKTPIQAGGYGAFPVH
T1 sequence (P15056 whole entry V600E): as the sequence (P15056 whole entry G466V) above, with V466G, V600E counted along it

Row | Compound | DC50 (BRAF V600E) | Dmax (BRAF V600E) | DC50 (BRAF G466V) | Dmax (BRAF G466V)
1 | O=C1CCC(N2Cc3cc(N4CCC5(CCN(CCc6ccc(-c7cnc8[nH]cc(C(=O)c9c(F)ccc(NS(=O)(=O)N%10CC[C@@H](F)C%10)c9F)c8c7)cc6)CC5)C4)ccc3C2=O)C(=O)N1 (stereo partly drawn) [Compound 10, (3R)-N-(3-{5-[4-(2-{2-[2-(2,6-dioxopiperidin-3-yl)-1-oxo-2,3-dihydro-1H-isoindol-5-yl]-2,8-diazaspiro[4.5]decan-8-yl}ethyl)phenyl]-1H-pyrrolo[2,3-b]pyridine-3-carbonyl}-2,4-difluorophenyl)-3-fluoropyrrolidine-1-sulfonamide] | 0.005 to 0.05 µM | 35 to 70% | < 0.001 µM | 35 to 70%
2 | O=C1CC[C@@H](N2Cc3cc([C@H](O)CCN4CCC(c5ccc(-c6cnc7[nH]cc(C(=O)c8c(F)ccc(NS(=O)(=O)N9CC[C@@H](F)C9)c8F)c7c6)cc5)CC4)ccc3C2=O)C(=O)N1 [Compound 68, (3R)—N-[3-[5-(4-[1-[(3R)-3-[2-[(3R)-2,6-dioxopiperidin-3-yl]-1-oxo-3H-isoindol-5-yl]-3-hydroxypropyl]piperidin-4-yl]phenyl)-1H-pyrrolo[2,3-b]pyridine-3-carbonyl]-2,4-difluorophenyl]-3-fluoropyrrolidine-1-sulfonamide] | > 0.5 µM |  | 0.001 to 0.01 µM | > 70%
3 | O=C1CCC(N2Cc3cc(N4CCC(CN5CCN(Cc6ncc(-c7cnc8[nH]cc(C(=O)c9c(F)ccc(NS(=O)(=O)N%10CC[C@@H](F)C%10)c9F)c8c7)cn6)CC5)CC4)ccc3C2=O)C(=O)N1 (stereo partly drawn) [Compound 153, (3R)-N-{3-[5-(2-{[4-({1-[2-(2,6-dioxopiperidin-3-yl)-1-oxo-2,3-dihydro-1H-isoindol-5-yl]piperidin-4-yl}methyl)piperazin-1-yl]methyl}pyrimidin-5-yl)-1H-pyrrolo[2,3-b]pyridine-3-carbonyl]-2,4-difluorophenyl}-3-fluoropyrrolidine-1-sulfonamide] | 0.05 to 0.5 µM | > 70% | 0.001 to 0.01 µM | > 70%
4 | CC1(N2Cc3cc(C4CCN(CC5CCN(c6ccc(-c7cnc8[nH]cc(C(=O)c9c(F)ccc(NS(=O)(=O)N%10CC[C@@H](F)C%10)c9F)c8c7)cc6)CC5)CC4)ccc3C2=O)CCC(=O)NC1=O (stereo partly drawn) [Compound 183, (3R)-N-[2,4-difluoro-3-(5-{4-[4-({4-[2-(3-methyl-2,6-dioxopiperidin-3-yl)-1-oxo-2,3-dihydro-1H-isoindol-5-yl]piperidin-1-yl}methyl)piperidin-1-yl]phenyl}-1H-pyrrolo[2,3-b]pyridine-3-carbonyl)phenyl]-3-fluoropyrrolidine-1-sulfonamide] | 0.05 to 0.5 µM | < 35% | > 0.03 µM | 
5 | C[C@@]12CN(CC3CCN(c4ccc5c(c4)CN([C@@H]4CCC(=O)NC4=O)C5=O)CC3)C[C@@H]1CN(c1ccc(-c3cnc4[nH]cc(C(=O)c5c(F)ccc(NS(=O)(=O)N6CC[C@@H](F)C6)c5F)c4c3)cc1)C2 [Compound 52, (3R)-N-[3-(5-{4-[(3aS,6aR)-5-[(1-{2-[(3R)-2,6-dioxopiperidin-3-yl]-1-oxo-2,3-dihydro-1H-isoindol-5-yl}piperidin-4-yl)methyl]-3a-methyl-octahydropyrrolo[3,4-c]pyrrol-2-yl]phenyl}-1H-pyrrolo[2,3-b]pyridine-3-carbonyl)-2,4-difluorophenyl]-3-fluoropyrrolidine-1-sulfonamide] | 0.05 to 0.5 µM | < 35% | 0.001 to 0.01 µM | 35 to 70%
6 | O=C1CCC(N2Cc3cc(N4CCC(CN5CCN(c6ncc(-c7cnc8[nH]cc(C(=O)c9c(F)ccc(NS(=O)(=O)N%10CC[C@@H](F)C%10)c9F)c8c7)cn6)CC5)CC4)ccc3C2=O)C(=O)N1 (stereo partly drawn) [Compound 18, (3R)-N-[3-(5-{2-[4-({1-[2-(2,6-dioxopiperidin-3-yl)-1-oxo-2,3-dihydro-1H-isoindol-5-yl]piperidin-4-yl}methyl)piperazin-1-yl]pyrimidin-5-yl}-1H-pyrrolo[2,3-b]pyridine-3-carbonyl)-2,4-difluorophenyl]-3-fluoropyrrolidine-1-sulfonamide] | 0.05 to 0.5 µM | > 70% | < 0.001 µM | 35 to 70%

Results, then the compound that gave them:

Row | DC50 (BRAF V600E) | Dmax (BRAF V600E) | DC50 (BRAF G466V) | Dmax (BRAF G466V) | Compound
7 | 0.005 to 0.05 µM | 35 to 70% | 0.001 to 0.01 µM | > 70% | O=C1CCC(N2Cc3cc(CCCCN4CCC(c5ccc(-c6cnc7[nH]cc(C(=O)c8c(F)ccc(NS(=O)(=O)N9CC[C@@H](F)C9)c8F)c7c6)cc5)CC4)ccc3C2=O)C(=O)N1 (stereo partly drawn) [Compound 332, (3R)-N-(3-{5-[4-(1-{4-[2-(2,6-dioxopiperidin-3-yl)-1-oxo-2,3-dihydro-1H-isoindol-5-yl]butyl}piperidin-4-yl)phenyl]-1H-pyrrolo[2,3-b]pyridine-3-carbonyl}-2,4-difluorophenyl)-3-fluoropyrrolidine-1-sulfonamide]
8 | 0.005 to 0.05 µM | 35 to 70% | 0.001 to 0.01 µM | 35 to 70% | O=C1CC[C@H](NC(=O)c2ccc(N3CC4(CN(CC5CCN(c6ccc(-c7cnc8[nH]cc(C(=O)c9c(F)ccc(NS(=O)(=O)N%10CCC(F)(F)C%10)c9F)c8c7)cc6)CC5)C4)C3)cc2F)C(=O)N1 [Compound 351, 4-{6-[(1-{4-[3-(3-{[(3,3-difluoropyrrolidin-1-yl)sulfonyl]amino}-2,6-difluorobenzoyl)-1H-pyrrolo[2,3-b]pyridin-5-yl]phenyl}piperidin-4-yl)methyl}-2,6-diazaspiro[3.3]heptan-2-yl}-N-[(3S)-2,6-dioxopiperidin-3-yl]-2-fluorobenzamide]
9 | 0.005 to 0.05 µM | < 35% | 0.001 to 0.01 µM | > 70% | O=C1CCC(N2Cc3cc(N4CC(C5CN(CC6CCN(c7ccc(-c8cnc9[nH]cc(C(=O)c%10c(F)ccc(NS(=O)(=O)N%11CC[C@@H](F)C%11)c%10F)c9c8)cc7)CC6)C5)C4)ccc3C2=O)C(=O)N1 (stereo partly drawn) [Compound 227, (3R)-N-[3-(5-{4-[4-({1′-[2-(2,6-dioxopiperidin-3-yl)-1-oxo-2,3-dihydro-1H-isoindol-5-yl]-[3,3′-biazetidin]-1-yl}methyl)piperidin-1-yl]phenyl}-1H-pyrrolo[2,3-b]pyridine-3-carbonyl)-2,4-difluorophenyl]-3-fluoropyrrolidine-1-sulfonamide]
10 | 0.005 to 0.05 µM | 35 to 70% | 0.001 to 0.01 µM | 35 to 70% | CN(CCN1CCN(c2ccc(-c3cnc4[nH]cc(C(=O)c5c(F)ccc(NS(=O)(=O)N6CC[C@@H](F)C6)c5F)c4c3)cc2)CC1)[C@H]1CC[C@H](Oc2ccc3c(c2)CN(C2CCC(=O)NC2=O)C3=O)CC1 (stereo partly drawn) [Compound 195, (3R)-N-[2,4-difluoro-3-(5-{4-[4-(2-{methyl[(1r,4r)-4-{[2-(2,6-dioxopiperidin-3-yl)-1-oxo-2,3-dihydro-1H-isoindol-5-yl]oxy}cyclohexyl]amino}ethyl)piperazin-1-yl]phenyl}-1H-pyrrolo[2,3-b]pyridine-3-carbonyl)phenyl]-3-fluoropyrrolidine-1-sulfonamide]
11 | 0.005 to 0.05 µM | 35 to 70% | 0.001 to 0.01 µM | > 70% | O=C1CCC(N2Cc3cc(CCCN4CC5(C4)CN(c4ccc(-c6cnc7[nH]cc(C(=O)c8c(F)ccc(NS(=O)(=O)N9CCC(F)(F)C9)c8F)c7c6)cc4)C5)ccc3C2=O)C(=O)N1 (stereo not drawn) [Compound 248, N-(3-{5-[4-(6-{3-[2-(2,6-dioxopiperidin-3-yl)-1-oxo-2,3-dihydro-1H-isoindol-5-yl]propyl}-2,6-diazaspiro[3.3]heptan-2-yl)phenyl]-1H-pyrrolo[2,3-b]pyridine-3-carbonyl}-2,4-difluorophenyl)-3,3-difluoropyrrolidine-1-sulfonamide]
12 | 0.05 to 0.5 µM | 35 to 70% | 0.001 to 0.01 µM | 35 to 70% | O=C1CCC(N2Cc3cc(N4CC(CN5CCN(Cc6ncc(-c7cnc8[nH]cc(C(=O)c9c(F)ccc(NS(=O)(=O)N%10CC[C@@H](F)C%10)c9F)c8c7)cn6)CC5)C4)ccc3C2=O)C(=O)N1 (stereo partly drawn) [Compound 193, (3R)-N-{3-[5-(2-{[4-({1-[2-(2,6-dioxopiperidin-3-yl)-1-oxo-2,3-dihydro-1H-isoindol-5-yl]azetidin-3-yl}methyl)piperazin-1-yl]methyl}pyrimidin-5-yl)-1H-pyrrolo[2,3-b]pyridine-3-carbonyl]-2,4-difluorophenyl}-3-fluoropyrrolidine-1-sulfonamide]
13 | 0.05 to 0.5 µM | < 35% | < 0.001 µM | 35 to 70% | O=C1CCC(N2Cc3cc(N4CCC(CN5CCN(C6(c7ncc(-c8cnc9[nH]cc(C(=O)c%10c(F)ccc(NS(=O)(=O)N%11CC[C@@H](F)C%11)c%10F)c9c8)cn7)CC6)CC5)CC4)ccc3C2=O)C(=O)N1 (stereo partly drawn) [Compound 298, (3R)-N-{3-[5-(2-{1-[4-({1-[2-(2,6-dioxopiperidin-3-yl)-1-oxo-2,3-dihydro-1H-isoindol-5-yl]piperidin-4-yl}methyl)piperazin-1-yl]cyclopropyl}pyrimidin-5-yl)-1H-pyrrolo[2,3-b]pyridine-3-carbonyl]-2,4-difluorophenyl}-3-fluoropyrrolidine-1-sulfonamide]
14 | 0.005 to 0.05 µM | 35 to 70% | 0.001 to 0.01 µM | 35 to 70% | CN(c1ncc(-c2cnc3[nH]cc(C(=O)c4c(F)ccc(NS(=O)(=O)N5CC[C@@H](F)C5)c4F)c3c2)cn1)C1CCN(CC2CCN(c3ccc4c(c3)CN([C@H]3CCC(=O)NC3=O)C4=O)CC2)CC1 [Compound 287, (3R)-N-(3-{5-[2-({1-[(1-{2-[(3S)-2,6-dioxopiperidin-3-yl]-1-oxo-2,3-dihydro-1H-isoindol-5-yl}piperidin-4-yl)methyl]piperidin-4-yl}(methyl)amino)pyrimidin-5-yl]-1H-pyrrolo[2,3-b]pyridine-3-carbonyl}-2,4-difluorophenyl)-3-fluoropyrrolidine-1-sulfonamide]
